Experimental data: patent publication US4820712A, “Sparsomycin (SC-RS) compounds having antitumor activity, a process for their preparation and pharmaceutical compositions containing sparsomycin (SC-RS) compounds” (priority 1986, dated 1989)
Converted amounts (≈) assume the structure as drawn. Where two headings read alike, the source gives them in different places.

How the values were obtained:
L1210 leukemia = assay: in vivo antitumor assay, L1210 leukemia; set-up: species or system CDF1 mice
Protocol: (§1) The antitumor activity of the present compounds has also been investigated by in vivo assays. In the assays, mice were treated for nine days in succession, starting at 24 hours after the time of tumor implant.
(§2) The results are shown in tables 4, 5 and 6 and represent the number of tumor-bearing mice surviving after administration of optimal doses of the test compound, expressed as a treatment/control (T/C×100%) ratio. In the tables, information is provided with respect to the sex, dose, weight loss of treated animals compared to control animals, and the number of survivors in groups of 6 mice.

acute toxicity LD50 = format: in vivo, mice; details: mouse, in vivo, ip, daily x9 injections, mice; 95% confidence interval given; read-out: LD 50 in mg/kg/inj i.p. in mice
Description: It appears therefrom that ala-sparsomycin is about 9× less toxic than sparsomycin.

P388 leukemia = assay: in vivo antitumor assay, P388 leukemia; set-up: species or system CDF1 mice; details: for T/C (survival, treatment/control x 100%): ip daily x9, optimal dose mg/kg: sparsomycin 0.125, n-octyl 22.5, benzyl 2.0, 2e 20.0
Protocol: as §1, §2

Leukemia L 1210 cells = assay: in vitro clonogenic L1210 assay (inhibition of colony formation in soft agar); format: cell-based; details: Mus musculus, L1210, 72 h, read-out: ID50 (dose giving 50% inhibition of L1210 colony formation)
Protocol: The in vitro clonogenic assay was effected in Leukemia L 1210 cells in soft agar medium (0.3%). […] In the analysis, the inhibition of the L 1210 colony formation by sparsomycin and derivatives thereof is determined for various concentrations, and the dose giving 50% inhibition of the colony formation, as compared with non-treated control cells is calculated (ID50).
From a suspension culture one hundred L 1210 cells are plated out in 35 mm culture dishes (Falcon) containing 1 ml soft agar culture medium and the compound to be investigated in suitable concentrations. The soft agar culture medium consists of Dulbecco's medium supplemented with 20% horse serum, 60 μmole 2-mercaptoethanol, 20 mg/ml L-asparagine, 75 mg/ml DEAE dextran (molecular weight 2×10^6) and 0.3% bacto agar (Difco). The culture dishes were incubated at 37° C. in an atmosphere of 10% CO2 in humidified air for 3 days. After this period of continuous exposure to the medicament the colonies were counted and dose-effect curves made. From these curves, the medicament dose is calculated which causes 50% inhibition of the colony formation as compared with non-treated control cells.

[1] = target: ribosomes from S. cerevisiae Y166 (peptidyl transferase activity); assay: fragment reaction, S. cerevisiae ribosomes; format: biochemical; details: 50% inhibition relative to control; 0° C., 30 min, 33% methanol; read-out: ED50 Fragment reaction S. cerevisiae
Protocol: (§3) The peptidyl transferase activity was measured by the polyphenylalanine synthesis assay (Nirenberg and Matthei, Proc. Natl. Acad. Sci. USA 47 (1961) 1588), the fragment reaction (Monro, Methods Enzymol. 20 (1971) 472) and the puromycin reaction. In all the in vitro tests, i.e. polyPhe synthesis, fragment reaction and puromycin reaction, ribosomes from E. coli MRE600 and S. cerevisiae Y166 were used. The reaction mixture for polyphenylalanine synthesis was slightly different for E. coli and S. cerevisiae.
(§4) The fragment reaction was carried out in 150 μl of 33 mM Tris-HCl pH 7.4, 270 mM KCl, 13 mM magnesium acetate containing 1 mg/ml of ribosomes, 2 mM puromycin, 1 pmol of N-acetyl-[^3 H]Leu-ACCAC(U), the required concentration of sparsomycin or its analogue and 33% methanol. The reaction was initiated by the addition of the alcohol and allowed to proceed at 0° C. for 30 min, and was then stopped by the addition of 100 μl of 0.3M sodium acetate pH 5.5 saturated with MgSO4. The samples were extracted with 1.5 ml of ethyl acetate and 1 ml of the organic phase was checked for radioactivity. The 3' terminal pentanucleotide N-acetyl-[^3 H]Leu-ACCAC(U) was prepared from N-acetyl-[^3 H]Leu-tRNA by ribonuclease T1 as described by Monro.
(§5) The concentration of sparsomycin or an analog giving 50% inhibition of the protein synthesis relative to the control is given in ED50.

[2] = test system: ribosomes from E. coli MRE600 (peptidyl transferase activity); assay: puromycin reaction, E. coli ribosomes; format: biochemical; details: 50% inhibition relative to control; read-out: ED50 Puromycin reaction E. coli
Protocol: as §3
The puromycin reaction was carried out in 25 μl of 30 mM KCl, 50 mM NH4 Cl, 30 mM Tris-HCl pH 7.8, 20 mM MgCl2, 10 pmol of ribosomes, 100 μg/ml of poly(U) and 15 pmol of N-acetyl-[^3 H]Phe-tRNA. The reaction mixture was incubated for 30 min at 37° C. and then 1 μl of 20 mM puromycin was added and incubation was followed for 5 more min. To the samples 250 μl of 0.1M sodium carbonate and 0.7 ml of ethyl acetate were added, shaken for 1 min, centrifuged to separate the phases and 0.5 ml of the upper organic phase taken for estimating the radioactivity.
as §5

[3] = target: ribosomes from S. cerevisiae Y166 (peptidyl transferase activity); assay: polyphenylalanine synthesis assay, S. cerevisiae ribosomes; format: biochemical; details: concentration giving 50% inhibition relative to control; 30° C., 30 min; read-out: ED50 polyPhe synthesis S. cerevisiae
Protocol: as §3
S. cerevisiae: The test was carried out as indicated above for E. coli. The phosphoenol pyruvate and pyruvate kinase were, however, replaced by creatine phosphate (20 mM) and creatine phosphokinase (50 μg/ml). The incubation was performed at 30° C. for 30 min and the samples were processed as described above. Under these conditions the control samples polymerized 5-14 and 3-8 molecules of phenylalanine per ribosome derived from E. coli and S. cerevisiae, respectively. Ribosomes and supernatant factors from E. coli and S. cerevisiae were prepared according to standard procedures, described by Staehelin and Maglott, Methods Enzymol. 20 (1971) 449, and by Sanchez-Madrid et al, Eur. J. Biochem. 98 (1979) 409.
as §5

E. coli MRE600 = assay: inhibition of bacterial growth; format: cell-based
Protocol: Inhibition of bacterial growth was tested in solid as well as in liquid medium. For the test on agar plates, petri dishes containing 15 ml of LB medium (10 g/l bactotryptone, 5 g/l yeast extract and 5 g/l NaCl) were covered with 5 ml of the same medium--kept melted at 40° C.--containing 40 μl of a culture of the required bacterium at approximately an A550 of 2. After solidification, 3 mm filter disks containing 4 μl of a 10 mM solution of the antibiotic in 50EtOH/DMSO were placed on the surface of the agar and the plates were incubated at 37° C. for 24 h. For the test in liquid medium, E. coli MRE600 was grown in LB medium supplemented with 0.2% of glucose to exponential phase (A560 =0.1) and distributed in 1 ml aliquots in tubes containing the required amount of antibiotic. The tubes were incubated at 37° C. for 4 h, subsequently diluted with 3 ml of 0.1% of sodium azide to stop growth and the absorption at 550 nm was measured. The absorption of the medium without addition of antibiotic was considered as 100% growth.

[4] = test system: ribosomes from E. coli MRE600 (peptidyl transferase activity); assay: polyphenylalanine synthesis assay, E. coli ribosomes; format: biochemical; details: concentration giving 50% inhibition relative to control; 37° C., 30 min; read-out: ED50 polyPhe synthesis E. coli
Protocol: as §3
E. coli: The reaction mixture (50 μl) contained 50 mM Tris-HCl pH 7.6, 15 mM MgCl2, 90 mM KCl, 15 mM β-mercapto ethanol, 1 mM GTP, 10 mM ATP, 0.2 mg/ml of polyuridylic acid, 1.5 mg/ml tRNA, 0.3 μM of ribosomes, 2.5 mg/ml of phosphoenol pyruvate, 20 μg/ml of pyruvate kinase, the required concentration of sparsomycin or its analogue and 5 μl of supernatant fraction S-100. Subsequently, [^3 H]phenylalanine, 30 μM (about 60 cpm/pmol) was added to start the reaction. Incubation was at 37° C. for 30 min. The reaction was stopped by the addition of 1 ml of 10% TCA and the samples were filtered through glass fiber filters. The filters were washed with 10 ml of cold 10% TCA, dried and counted for radioactivity.
as §5

[5] = test system: ribosomes from E. coli MRE600 (peptidyl transferase activity); assay: fragment reaction, E. coli ribosomes; format: biochemical; details: 50% inhibition relative to control; 0° C., 30 min, 33% methanol; read-out: ED50 Fragment reaction E. coli
Protocol: as §3, §4, §5

[6] = test system: RC (renal cell) carcinoma; assay: in vivo antitumor assay, RC (renal cell) carcinoma; set-up: species or system CDF1 mice; details: for T/C (survival, treatment/control x 100%): ip daily x9, optimal dose mg/kg: sparsomycin 0.125, n-octyl 20.0, benzyl 2.7, 2a 1.1
Protocol: as §1, §2

solubility in water = format: physicochemical
[7] = female mice, ip daily x9, optimal dose mg/kg: sparsomycin 0.25, n-octyl 12.0, benzyl 10.0, 2a 2.5, 2e 13.3
[8] = female mice, ip daily x9, dose mg/kg: sparsomycin 0.25, n-octyl 12.0, benzyl 10.0, 2a 2.5, 2e 13.3
[9] = male mice, ip daily x9, dose mg/kg: sparsomycin 0.125, n-octyl 22.5, benzyl 2.0, 2e 20.0
[10] = soft agar 0.3%, 3 days continuous exposure, vs non-treated control cells
[11] = Escherichia coli, MRE600, 4 h, read-out: Growth inhibition E. coli MRE600 ED50
[12] = male mice, ip daily x9, optimal dose mg/kg: sparsomycin 0.125, n-octyl 20.0, benzyl 4.0, 2a 1.7
[13] = male mice, ip daily x9, dose mg/kg: sparsomycin 0.125, n-octyl 20.0, benzyl 4.0, 2a 1.7
[14] = male mice, ip daily x9, dose mg/kg: sparsomycin 0.125, n-octyl 20.0, benzyl 2.7, 2a 1.1

| SMILES | T/C (survival, treatment/control x 100%) (L1210 leukemia; [7]) [%] | cures (survivors in groups of 6 mice) (L1210 leukemia; [8]) | weight loss (T - C) (L1210 leukemia; mouse, in vivo, ip) [g] | LD50 (acute toxicity LD50) [mg/kg] | T/C (survival, treatment/control x 100%) (P388 leukemia; male mice) [%] | cures (survivors in groups of 6 mice) (P388 leukemia; [9]) | weight loss (T - C) (P388 leukemia; mouse, in vivo, ip) [g] | IC50 (Leukemia L 1210 cells; [10]) [nM] | IC50 [1] [nM] | IC50 [2] [nM] | IC50 [3] [nM] | IC50 (E. coli MRE600; [11]) [nM] | IC50 (Leukemia L 1210 cells) [nM] | IC50 [4] [nM] | IC50 [5] [nM] | T/C (survival, treatment/control x 100%) (L1210 leukemia; [12]) [%] | cures (survivors in groups of 6 mice) (L1210 leukemia; [13]) | T/C (survival, treatment/control x 100%) ([6]; male mice) [%] | cures (survivors in groups of 6 mice) [6, 14] | solubility (solubility in water) [µg/mL] | further results |
| --- | --- | --- | --- | --- | --- | --- | --- | --- | --- | --- | --- | --- | --- | --- | --- | --- | --- | --- | --- | --- | --- |
| CCCCSC[S@+]([O-])C[C@H](C)NC(=O)/C=C/c1c(C)[nH]c(=O)[nH]c1=O [2e, (Sc Rs)-1-(n-butylthiomethyl)sulfinyl-2-[β-(6-methyl-5-uracilyl)acrylamido]-propane] | 161 | 0/6 | -0.7 | > 16 | 146 | 0/6 | -3.2 | – | – | – | – | – | – | – | – | – | – | – | – | – | – |
| CCCCCCCCSC[S@+]([O-])C[C@H](C)NC(=O)/C=C/c1c(C)[nH]c(=O)[nH]c1=O [2f, (Sc Rs)-1-(n-octylthiomethyl)sulfinyl-2-[β-(6-methyl-5-uracilyl)acrylamido]-propane] | – | – | – | – | – | – | – | 180 | – | – | – | – | – | – | – | – | – | – | – | – | – |
| CSC[S@@+]([O-])C[C@H](C)NC(=O)/C=C/c1c(C)[nH]c(=O)[nH]c1=O [3a, (Sc Ss)-1-(methylthiomethyl)sulfinyl-2-[β-(6-methyl-5-uracilyl)acrylamido]-propane] | – | – | – | – | – | – | – | – | 68000 | 2700 | 143000 | 44000 | 550 | 283000 | 55000 | – | – | – | – | – | – |
| Cc1[nH]c(=O)[nH]c(=O)c1/C=C/C(=O)N[C@@H](CO)C[S@@+]([O-])CSCc1ccccc1 [benzyl-sparsomycin] | 217 | 0/6 | – | 5 | 133 | 0/6 | – | – | 2600 | 130 | 600 | 1000 | 110 | – | 7600 | 162 | 0/6 | 158 | 0/6 | 1500 (≈ 3430 µM) | weight loss (T - C) (L1210 leukemia; [8]): -1.6 g; weight loss (T - C) (L1210 leukemia; male mice, ip daily x9 from 24 h after implant, dose mg/kg: sparsomycin 0.125, n-octyl 20.0, benzyl 4.0, 2a 1.7): -1.8 g; weight loss (T - C) [6, 14]: -1.8 g; weight loss (T - C) (P388 leukemia; [9]): -2.2 g |
| CCCCCCCCSC[S@+]([O-])C[C@H](CO)NC(=O)/C=C/c1c(C)[nH]c(=O)[nH]c1=O [n-octyl-sparsomycin] | 153 | 0/6 | -1.9 | 29.5 | 150 | 0/6 | -1.7 | 100 | 300000 | 250 | 1300 | – | – | 1600 | 60000 | 152 | 0/6 | 179 | 0/6 | ~200 (≈ 435 µM) | weight loss (T - C) ([6]; mouse, in vivo, ip): -1.6 g; IC50 (E. coli MRE600; Escherichia coli, MRE600, 4 h; read-out: Growth inhibition E. coli MRE600 ED50): 2500 nM |
